{
  "source": "paper PMC8353271",
  "about": "“Functional Characterization of Olfactory Receptors in the Thyroid Gland” (Frontiers in Physiology, 2021)",
  "molecular_target": "T1, OR2H2 (Homo sapiens, UniProt O95918)",
  "T1 sequence (O95918 1-312)": "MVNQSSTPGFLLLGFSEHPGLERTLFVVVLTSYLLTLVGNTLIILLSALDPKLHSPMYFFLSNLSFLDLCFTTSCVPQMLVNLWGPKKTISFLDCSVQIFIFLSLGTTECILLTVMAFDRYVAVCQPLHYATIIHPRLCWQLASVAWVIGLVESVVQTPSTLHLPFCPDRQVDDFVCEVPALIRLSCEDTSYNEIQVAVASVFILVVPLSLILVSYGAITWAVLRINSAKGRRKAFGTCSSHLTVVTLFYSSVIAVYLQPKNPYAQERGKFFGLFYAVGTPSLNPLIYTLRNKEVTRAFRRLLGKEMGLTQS",
  "test": "Fura-2 Ca2+ imaging in Nthy-ori […]-1 cells (endogenous receptor), response reduced by CRISPR/Cas9 OR2H2 knockout; cAMP assay",
  "assay_type": "cell-based",
  "note": "pEC50: −log10 of the molar value.",
  "data": [
    {"substance": "aldehyde 13-13", "values": [
      {"measurement": "pEC50", "result": 3.44}
    ]}
  ]
}
